From ChEMBL document CHEMBL1201862, “PubChem BioAssay data set” (2004)
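Following 48 hours of exposure in 96-well plates, responses at five concentrations were used to interpolate endpoints linearly. GI50 marks 50% less growth.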 Calls of active or inactive are those of the source. No stated cut-off is given here; in the data, active = GI50 up to about 1.1 µM and inactive = higher.

Experiments:
Test in all cases: NCI-60 cell line screen, 48 h
SNB-19 = test system: SNB-19
NCI-H226 = test system: NCI-H226
SNB-75 = test system: SNB-75
TK-10 = test system: TK-10
COLO 205 = test system: COLO 205
A498 = test system: A498
SF-268 = test system: SF-268
OVCAR-8 = test system: OVCAR-8
M14 = test system: M14
SK-MEL-5 = test system: SK-MEL-5
DU-145 = test system: DU-145
CAKI-1 = test system: CAKI-1
UO-31 = test system: UO-31
HCT-116 = test system: HCT-116
SW-620 = test system: SW-620
SR = test system: SR
OVCAR-3 = test system: OVCAR-3
LOX IMVI = test system: LOX IMVI
CCRF-CEM = test system: CCRF-CEM
NCI-H460 = test system: NCI-H460

Measured: GI50

O=C1c2ccccc2C(=O)c2c(Nc3cc4c5c(ccc6c7ccc8c9c(cc(Nc%10cccc%11c%10C(=O)c%10ccccc%10C%11=O)c(c3c56)c97)-c3ccccc3C8=O)C(=O)c3ccccc3-4)cccc21
inactive: SNB-19 29.9 µM | NCI-H226 > 100 µM | SNB-75 17.6 µM | TK-10 29.9 µM | COLO 205 > 100 µM | A498 26.1 µM | SF-268 18.8 µM | OVCAR-8 25 µM | M14 > 100 µM | SK-MEL-5 > 100 µM | DU-145 > 100 µM | CAKI-1 67 µM | UO-31 84.5 µM | HCT-116 88.9 µM | SW-620 > 100 µM | SR 43.7 µM | OVCAR-3 41.2 µM | LOX IMVI 72.1 µM

CC1CCCCNC1=S (stereo not drawn)
inactive: SNB-19 > 10 µM | NCI-H226 > 10 µM | SNB-75 > 10 µM | TK-10 > 10 µM | A498 > 10 µM | SF-268 > 10 µM | OVCAR-8 > 10 µM | M14 > 10 µM | SK-MEL-5 > 10 µM | CCRF-CEM > 10 µM | DU-145 > 10 µM | UO-31 > 10 µM | NCI-H460 > 10 µM | SW-620 > 10 µM | SR > 10 µM | OVCAR-3 > 10 µM | LOX IMVI > 10 µM

Cn1c2ccccc2n2c(=O)c(-c3ccc(O)cc3)nnc12
inactive: SNB-19 80.4 µM | NCI-H226 46.6 µM | SNB-75 25.8 µM | TK-10 > 100 µM | COLO 205 > 100 µM | A498 > 100 µM | SF-268 64.7 µM | OVCAR-8 > 100 µM | M14 > 100 µM | SK-MEL-5 > 100 µM | CCRF-CEM > 100 µM | DU-145 > 100 µM | CAKI-1 27.7 µM | UO-31 > 100 µM | NCI-H460 87.3 µM | HCT-116 > 100 µM | SW-620 > 100 µM | SR > 100 µM | LOX IMVI 69.8 µM

NCCN/C(=N\c1ccccc1)Nc1ccccc1
inactive: SNB-19 > 100 µM | NCI-H226 > 100 µM | SNB-75 72.6 µM | TK-10 > 100 µM | COLO 205 > 100 µM | SF-268 > 100 µM | OVCAR-8 > 100 µM | M14 > 100 µM | SK-MEL-5 99.5 µM | CCRF-CEM > 100 µM | DU-145 > 100 µM | CAKI-1 > 100 µM | UO-31 > 100 µM | NCI-H460 > 100 µM | HCT-116 94.2 µM | SW-620 > 100 µM | SR > 100 µM | OVCAR-3 > 100 µM | LOX IMVI 83.8 µM

COc1ccc2c(c1)C(=O)CC1c3cnccc3C(=O)N21 (stereo not drawn)
inactive: SNB-19 > 72.1 µM | NCI-H226 > 100 µM | SNB-75 > 100 µM | TK-10 > 100 µM | COLO 205 > 100 µM | A498 > 100 µM | SF-268 > 100 µM | OVCAR-8 > 100 µM | M14 > 100 µM | SK-MEL-5 > 100 µM | DU-145 > 100 µM | CAKI-1 > 100 µM | UO-31 49.1 µM | NCI-H460 > 67.9 µM | HCT-116 > 73.6 µM | SW-620 > 100 µM | SR > 85.5 µM | OVCAR-3 > 100 µM | LOX IMVI > 100 µM

NS(=O)(=O)c1ccc(NNc2c3ccccc3nc3c(C(=O)Nc4ccc(S(=O)(=O)Nc5ncccn5)cc4)cccc23)cc1
inactive: SNB-19 > 25 µM | NCI-H226 > 25 µM | SNB-75 20.2 µM | TK-10 > 25 µM | COLO 205 > 25 µM | SF-268 > 25 µM | OVCAR-8 > 25 µM | M14 > 25 µM | SK-MEL-5 > 25 µM | CCRF-CEM > 25 µM | DU-145 > 25 µM | CAKI-1 > 25 µM | UO-31 > 25 µM | NCI-H460 > 25 µM | HCT-116 > 25 µM | SW-620 > 25 µM | SR > 25 µM | OVCAR-3 > 25 µM | LOX IMVI > 25 µM

CCCC1CCC(=C2C(=O)CCC2=O)O1 (stereo not drawn)
inactive: SNB-19 > 100 µM | NCI-H226 > 100 µM | SNB-75 4.91 µM | TK-10 > 100 µM | COLO 205 > 100 µM | SF-268 > 100 µM | OVCAR-8 > 100 µM | M14 > 100 µM | CCRF-CEM > 100 µM | DU-145 > 100 µM | CAKI-1 > 100 µM | UO-31 > 100 µM | NCI-H460 > 100 µM | HCT-116 > 100 µM | SW-620 > 100 µM | SR > 100 µM | OVCAR-3 > 100 µM | LOX IMVI > 100 µM

Cn1c2ccccc2n2c(=O)c3cc([N+](=O)[O-])ccc3c(C#N)c12
inactive: SNB-19 > 100 µM | NCI-H226 > 100 µM | SNB-75 56.2 µM | TK-10 > 100 µM | COLO 205 > 100 µM | SF-268 > 100 µM | OVCAR-8 > 100 µM | M14 > 100 µM | SK-MEL-5 > 100 µM | CCRF-CEM > 100 µM | DU-145 > 100 µM | CAKI-1 > 10 µM | UO-31 > 100 µM | NCI-H460 > 100 µM | HCT-116 > 100 µM | SW-620 > 100 µM | SR > 100 µM | OVCAR-3 > 100 µM | LOX IMVI > 100 µM
